The test system of the experiment is KRAS G12V dependent lung adenocarcinoma cell line, NCI-H441. As to the kind of experiment: Cellular pERK (Thr202/Tyr204) FRET/HTRF assay. As to conditions: Homo sapiens, NCI-H441, pERK HTRF, NCI-H441 cells (KRAS G12V). Type of experiment: cell-based. The essentials:
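IC50 reflects inhibition of ERK1/2 Thr202/Tyr204 phosphorylation, quantified by HTRF after a 1 hr treatment of KRAS G12V-driven NCI-H441 cells. DMSO served as negative control.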
(In general: TR-FRET usually uses a lanthanide donor and a delayed reading to cut background.)

In general, IC50 refers to the concentration that gives 50% inhibition.

In turn, `[2H]C([2H])(Oc1nc(N2CCCO[C@@H]3C[C@@H]32)c2cnc(-c3cc(O)cc4ccc(F)c(C#C)c34)c(F)c2n1)[C@@]12CCCN1C[C@H](F)C2` [Example 11, 4-(4-((1R,7S)-2-Oxa-6-azabicyclo[5.1.0]octan-6-yl)-8-fluoro-2-(((2R,7aS)-2-fluorotetrahydro-1H-pyrrolizin-7a(5H)-yl)methoxy-d2)pyrido[4,3-d]pyrimidin-7-yl)-5-ethynyl-6-fluoronaphthalen-2-ol] displayed an IC50 of 0.05 to 0.5 µM. For the compound `C#Cc1c(F)ccc2cc(O)cc(-c3ncc4c(N5CCCC6CC6C5)nc(OC[C@@]56CCCN5C[C@H](F)C6)nc4c3F)c12` (stereo partly drawn) [Example 12, 4-(4-(3-Azabicyclo[5.1.0]octan-3-yl)-8-fluoro-2-(((2R,7aS)-2-fluorotetrahydro-1H-pyrrolizin-7a(5H)-yl)methoxy)pyrido[4,3-d]pyrimidin-7-yl)-5-ethynyl-6-fluoronaphthalen-2-ol], the IC50 is less than 0.05 µM. `[2H]C([2H])(Oc1nc(N2CCCO[C@H]3C[C@H]32)c2cnc(-c3cc(N)cc4cc(F)c(F)c(C#C)c34)c(F)c2n1)[C@@]12CCCN1C[C@H](F)C2` [Example 17, 4-(4-((1S,7R)-2-Oxa-6-azabicyclo[5.1.0]octan-6-yl)-8-fluoro-2-(((2R,7aS)-2-fluorotetrahydro-1H-pyrrolizin-7a(5H)-yl)methoxy-d2)pyrido[4,3-d]pyrimidin-7-yl)-5-ethynyl-6,7-difluoronaphthalen-2-amine] came in with an IC50 of less than 0.05 µM.

On to `[2H]C([2H])(Oc1nc(N2CCCO[C@@H]3C[C@@H]32)c2cnc(-c3cc(N)cc4cc(F)c(F)c(C#C)c34)c(F)c2n1)[C@@]12CCCN1C[C@H](F)C2` [Example 18, 4-(4-((1R,7S)-2-Oxa-6-azabicyclo[5.1.0]octan-6-yl)-8-fluoro-2-(((2R,7aS)-2-fluorotetrahydro-1H-pyrrolizin-7a(5H)-yl)methoxy-d2)pyrido[4,3-d]pyrimidin-7-yl)-5-ethynyl-6,7-difluoronaphthalen-2-amine], for which the IC50 lay within 0.5 to 10 µM. Consider `[2H]C([2H])(Oc1nc(N2CCOC[C@@H]3[C@H]2C3(F)F)c2cnc(-c3cc(N)cc4cc(F)c(F)c(C#C)c34)c(F)c2n1)[C@@]12CCCN1C[C@H](F)C2` [Example 19, 4-(4-((1S,7S)-8,8-Difluoro-5-oxa-2-azabicyclo[5.1.0]octan-2-yl)-8-fluoro-2-(((2R,7aS)-2-fluorotetrahydro-1H-pyrrolizin-7a(5H)-yl)methoxy-d2)pyrido[4,3-d]pyrimidin-7-yl)-5-ethynyl-6,7-difluoronaphthalen-2-amine], for which the IC50 is less than 0.05 µM. `[2H]C([2H])(Oc1nc(N2CCOC[C@H]3[C@@H]2C3(F)F)c2cnc(-c3cc(N)cc4cc(F)c(F)c(C#C)c34)c(F)c2n1)[C@@]12CCCN1C[C@H](F)C2` [Example 20, 4-(4-((1R,7R)-8,8-Difluoro-5-oxa-2-azabicyclo[5.1.0]octan-2-yl)-8-fluoro-2-(((2R,7aS)-2-fluorotetrahydro-1H-pyrrolizin-7a(5H)-yl)methoxy-d2)pyrido[4,3-d]pyrimidin-7-yl)-5-ethynyl-6,7-difluoronaphthalen-2-amine] returned an IC50 of 0.5 to 10 µM. Then `[2H]C([2H])(Oc1nc(N2CCCO[C@H]3[C@@H](F)[C@H]32)c2cnc(-c3cc(N)cc4cc(F)c(F)c(C#C)c34)c(F)c2n1)[C@@]12CCCN1C[C@H](F)C2` [Example 21, 5-Ethynyl-6,7-difluoro-4-(8-fluoro-4-((1R,7S,8S)-8-fluoro-2-oxa-6-azabicyclo[5.1.0]octan-6-yl)-2-(((2R,7aS)-2-fluorotetrahydro-1H-pyrrolizin-7a(5H)-yl)methoxy-d2)pyrido[4,3-d]pyrimidin-7-yl)naphthalen-2-amine], with 0.5 to 10 µM. Consider `[2H]C([2H])(Oc1nc(N2CCCO[C@@H]3[C@H](F)[C@@H]32)c2cnc(-c3cc(N)cc4cc(F)c(F)c(C#C)c34)c(F)c2n1)[C@@]12CCCN1C[C@H](F)C2` [Example 22, 5-Ethynyl-6,7-difluoro-4-(8-fluoro-4-((1S,7R,8R)-8-fluoro-2-oxa-6-azabicyclo[5.1.0]octan-6-yl)-2-(((2R,7aS)-2-fluorotetrahydro-1H-pyrrolizin-7a(5H)-yl)methoxy-d2)pyrido[4,3-d]pyrimidin-7-yl)naphthalen-2-amine], for which the half-inhibitory concentration (IC50) was in the range of 0.05 to 0.5 µM. `[2H]C([2H])(Oc1nc(N2CCCO[C@@H]3[C@@H](F)[C@@H]32)c2cnc(-c3cc(N)cc4cc(F)c(F)c(C#C)c34)c(F)c2n1)[C@@]12CCCN1C[C@H](F)C2` [Example 23, 5-Ethynyl-6,7-difluoro-4-(8-fluoro-4-((1S,7R,8S)-8-fluoro-2-oxa-6-azabicyclo[5.1.0]octan-6-yl)-2-(((2R,7aS)-2-fluorotetrahydro-1H-pyrrolizin-7a(5H)-yl)methoxy-d2)pyrido[4,3-d]pyrimidin-7-yl)naphthalen-2-amine] returned an IC50 of 0.5 to 10 µM.

`[2H]C1([2H])CCO[C@H]2C[C@H]2N1c1nc(OC([2H])([2H])[C@@]23CCCN2C[C@H](F)C3)nc2c(F)c(-c3cc(N)cc4cc(F)c(F)c(C#C)c34)ncc12` [Example 25, 4-(4-((1S,7R)-2-Oxa-6-azabicyclo[5.1.0]octan-6-yl-5,5-d2)-8-fluoro-2-(((2R,7aS)-2-fluorotetrahydro-1H-pyrrolizin-7a(5H)-yl)methoxy-d2)pyrido[4,3-d]pyrimidin-7-yl)-5-ethynyl-6,7-difluoronaphthalen-2-amine] displayed an IC50 of less than 0.05 µM. The compound `[2H]C1([2H])CCO[C@@H]2C[C@@H]2N1c1nc(OC([2H])([2H])[C@@]23CCCN2C[C@H](F)C3)nc2c(F)c(-c3cc(N)cc4cc(F)c(F)c(C#C)c34)ncc12` [Example 26, 4-(4-((1R,7S)-2-Oxa-6-azabicyclo[5.1.0]octan-6-yl-5,5-d2)-8-fluoro-2-(((2R,7aS)-2-fluorotetrahydro-1H-pyrrolizin-7a(5H)-yl)methoxy-d2)pyrido[4,3-d]pyrimidin-7-yl)-5-ethynyl-6,7-difluoronaphthalen-2-amine] came in with an IC50 of 0.05 to 0.5 µM. Next, `[2H]C([2H])(Oc1nc(N2CCOC[C@@H]3[C@@H](F)[C@@H]32)c2cnc(-c3cc(N)cc4cc(F)c(F)c(C#C)c34)c(F)c2n1)[C@@]12CCCN1C[C@H](F)C2` [Example 27, 5-Ethynyl-6,7-difluoro-4-(8-fluoro-4-((1R,7R,8R)-8-fluoro-5-oxa-2-azabicyclo[5.1.0]octan-2-yl)-2-(((2R,7aS)-2-fluorotetrahydro-1H-pyrrolizin-7a(5H)-yl)methoxy-d2)pyrido[4,3-d]pyrimidin-7-yl)naphthalen-2-amine]: 0.05 to 0.5 µM; `[2H]C([2H])(Oc1nc(N2CCOC[C@@H]3[C@H](F)[C@@H]32)c2cnc(-c3cc(N)cc4cc(F)c(F)c(C#C)c34)c(F)c2n1)[C@@]12CCCN1C[C@H](F)C2` [Example 29, 5-Ethynyl-6,7-difluoro-4-(8-fluoro-4-((1R,7R,8S)-8-fluoro-5-oxa-2-azabicyclo[5.1.0]octan-2-yl)-2-(((2R,7aS)-2-fluorotetrahydro-1H-pyrrolizin-7a(5H)-yl)methoxy-d2)pyrido[4,3-d]pyrimidin-7-yl)naphthalen-2-amine]: 0.05 to 0.5 µM; `[2H]C([2H])(Oc1nc(N2CCOC[C@H]3[C@@H](F)[C@H]32)c2cnc(-c3cc(N)cc4cc(F)c(F)c(C#C)c34)c(F)c2n1)[C@@]12CCCN1C[C@H](F)C2` [Example 30, 5-Ethynyl-6,7-difluoro-4-(8-fluoro-4-((1S,7S,8R)-8-fluoro-5-oxa-2-azabicyclo[5.1.0]octan-2-yl)-2-(((2R,7aS)-2-fluorotetrahydro-1H-pyrrolizin-7a(5H)-yl)methoxy-d2)pyrido[4,3-d]pyrimidin-7-yl)naphthalen-2-amine]: less than 0.05 µM. Next, `[2H]C([2H])(Oc1nc(N2CCO[C@@H]3C[C@@H]32)c2cnc(-c3cc(N)cc4cc(F)c(F)c(C#C)c34)c(F)c2n1)[C@@]12CCCN1C[C@H](F)C2` [Example 31, 4-(4-((1R,6S)-2-Oxa-5-azabicyclo[4.1.0]heptan-5-yl)-8-fluoro-2-(((2R,7aS)-2-fluorotetrahydro-1H-pyrrolizin-7a(5H)-yl)methoxy-d2)pyrido[4,3-d]pyrimidin-7-yl)-5-ethynyl-6,7-difluoronaphthalen-2-amine]: 0.05 to 0.5 µM. `[2H]C([2H])(Oc1nc(N2CCO[C@H]3C[C@H]32)c2cnc(-c3cc(N)cc4cc(F)c(F)c(C#C)c34)c(F)c2n1)[C@@]12CCCN1C[C@H](F)C2` [Example 32, 4-(4-((1S,6R)-2-Oxa-5-azabicyclo[4.1.0]heptan-5-yl)-8-fluoro-2-(((2R,7aS)-2-fluorotetrahydro-1H-pyrrolizin-7a(5H)-yl)methoxy-d2)pyrido[4,3-d]pyrimidin-7-yl)-5-ethynyl-6,7-difluoronaphthalen-2-amine] returned a half-inhibitory concentration (IC50) of 0.05 to 0.5 µM. Regarding `[2H]C([2H])(Oc1nc(N2CCCO[C@@H]3C[C@@H]32)c2c(OC)nc(-c3cc(N)cc4cc(F)c(F)c(C#C)c34)c(F)c2n1)[C@@]12CCCN1C[C@H](F)C2` [Example 33, 4-(4-((1R,7S)-2-Oxa-6-azabicyclo[5.1.0]octan-6-yl)-8-fluoro-2-(((2R,7aS)-2-fluorotetrahydro-1H-pyrrolizin-7a(5H)-yl)methoxy-d2)-5-methoxypyrido[4,3-d]pyrimidin-7-yl)-5-ethynyl-6,7-difluoronaphthalen-2-amine], the IC50 was 0.05 to 0.5 µM. Consider `[2H]C([2H])(Oc1nc(N2CCCO[C@H]3C[C@H]32)c2c(OC)nc(-c3cc(N)cc4cc(F)c(F)c(C#C)c34)c(F)c2n1)[C@@]12CCCN1C[C@H](F)C2` [Example 34, 4-(4-((1S,7R)-2-Oxa-6-azabicyclo[5.1.0]octan-6-yl)-8-fluoro-2-(((2R,7aS)-2-fluorotetrahydro-1H-pyrrolizin-7a(5H)-yl)methoxy-d2)-5-methoxypyrido[4,3-d]pyrimidin-7-yl)-5-ethynyl-6,7-difluoronaphthalen-2-amine], for which the IC50 is less than 0.05 µM.

These data come from US20250282799A1, “SUBSTITUTED PYRIDO[4,3-d]PYRIMIDINES AS KRAS MODULATORS” (Alterome Therapeutics, Inc., priority 2023, published 2025).
